Assay results from PubChem BioAssay (NCI).
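Grown in 96-well plates, cells were treated for 48 hours with each compound at five concentrations. Insufficient inhibition: endpoint recorded as highest concentration tested. Here, GI50 denotes the concentration required for 50% inhibition of growth. TGI is the concentration that stops growth completely.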 *1 amine or outer side, *2 acyl side, *3 side chain or, on linkers, in order; H or OH if unused. Where a SMILES comes first, the peptide text is derived from it. Bridges are numbered along the chain shown (N, C = ends). [ ]: non-standard residue; d: D form. The star is where a group is joined. Phe(3,5-F2) = N[C@@H](Cc1cc(F)cc(F)c1)C(=O)O; Pro(4R-Me) = C[C@H]1CN[C@H](C(=O)O)C1; aThr = C[C@H](O)[C@H](N)C(=O)O; Pip = O=C(O)[C@@H]1CCCCN1; X10 = Fc1cc(C2CC2)ccc1N*; CO = O=C([*:1])[*:2]

Experiments:
Test in all cases: growth of human tumour cells (NCI), 48 h
A498 renal = test system: A498 renal
COLO 205 colon = test system: COLO 205 colon
HL-60(TB) leukemia = test system: HL-60(TB) leukemia
MDA-MB-435 = test system: MDA-MB-435
NCI/ADR-RES ovarian = test system: NCI/ADR-RES ovarian
OVCAR-4 ovarian = test system: OVCAR-4 ovarian
SW-620 colon = test system: SW-620 colon
UACC-257 melanoma = test system: UACC-257 melanoma
SNB-78 CNS = test system: SNB-78 CNS
DMS 114 small cell lung = test system: DMS 114 small cell lung

SMILES	GI50 (A498 renal)	TGI (A498 renal)	GI50 (COLO 205 colon)	TGI (COLO 205 colon)	GI50 (HL-60(TB) leukemia)	TGI (HL-60(TB) leukemia)	GI50 (MDA-MB-435)	TGI (MDA-MB-435)	GI50 (NCI/ADR-RES ovarian)	TGI (NCI/ADR-RES ovarian)	GI50 (OVCAR-4 ovarian)	TGI (OVCAR-4 ovarian)	GI50 (SW-620 colon)	TGI (SW-620 colon)	GI50 (UACC-257 melanoma)	TGI (UACC-257 melanoma)	TGI (SNB-78 CNS)	TGI (DMS 114 small cell lung)
Nc1ccccc1C#C/C=C\C#Cc1ccccc1OC(F)(F)F	3.93 µM	14 µM	5.19 µM	28 µM	2.08 µM	11.1 µM	1.39 µM	6.04 µM	2.82 µM	11.1 µM	11.6 µM	42 µM	3.96 µM	16 µM	12 µM	50.7 µM		
C[C@@H]1C[C@H]2C(=O)O[C@@H](C)[C@H](NC(=O)[C@H](Cc3cc(F)cc(F)c3)NC(=O)Nc3ccc(C4CC4)cc3F)C(=O)N3CCC[C@H]3C(=O)N3CCCC[C@H]3C(=O)N[C@@H](C)C(=O)N2C1 ({X10-CO}-[Phe(3,5-F2)][aThr]P[Pip]A[Pro(4R-Me)]; ester 2-C)	0.0203 µM	0.363 µM	0.0351 µM	1.19 µM	0.0387 µM	1.82 µM	0.0423 µM	2.71 µM	0.354 µM	45.6 µM	0.033 µM	3.84 µM	0.0534 µM	> 100 µM	0.0413 µM	10.7 µM		
NC(N)=NS(=O)(=O)c1ccc(Nc2c3ccccc3nc3c(C(=O)NCCO)cccc23)cc1	13.6 µM		33.6 µM		16.9 µM		23.3 µM		48.7 µM	> 100 µM	25.3 µM		17.2 µM		39.4 µM			
O=C(Nc1ccc(F)cc1)Nc1ccc(Cl)c([N+](=O)[O-])c1	1.8 µM	5.78 µM	2.48 µM	6.31 µM	2.5 µM	8.56 µM	3.07 µM	11.6 µM	2.6 µM	10.3 µM	2.78 µM	14 µM	3.45 µM	13.9 µM	2.73 µM	8.85 µM		
Cc1ccc(CN2CCC(C(=O)Nc3ccc(-c4cc5ccccc5[nH]4)cc3)CC2)o1	4.04 µM	> 100 µM	71 µM	> 100 µM	> 100 µM	> 100 µM	> 100 µM	> 100 µM	> 100 µM	> 100 µM	70.1 µM	> 100 µM	> 100 µM	> 100 µM	> 100 µM	> 100 µM		
Fc1ccc(NC(=S)SCc2ccc3c(c2)OCO3)cc1F		61.8 µM		44.9 µM		42.6 µM		51.8 µM		75.7 µM		> 100 µM		> 100 µM		64 µM		
CCOC(=O)Cn1c(C(F)(F)F)nc2nc(Cl)c(Cl)nc21		> 74 µM		> 100 µM		42.9 µM		> 100 µM		> 100 µM		30.2 µM		> 100 µM		53.4 µM		
C=CC(=O)Nc1cc(Nc2ncc(C(=O)OC(C)C)c(-c3cn(C)c4ccccc34)n2)c(OC)cc1N(C)CCN(C)C	0.483 µM	7.63 µM	3.2 µM	> 22.2 µM	1.47 µM	3.7 µM	3 µM	7.6 µM	2.3 µM	17.7 µM	4.97 µM	21.3 µM	3.25 µM	8.88 µM	1.8 µM	3.71 µM		
C=C(C)C(OC)C(O)CC1(C)CC(O)CC(C)(C2CCC3OC(C4(C)CCC(Br)C(C)(C)O4)CCC3(C)O2)O1 (stereo unspecified)	16.5 µM	31.1 µM	21.7 µM	45.5 µM	17.1 µM	> 56.7 µM	19.8 µM	46.3 µM	18.3 µM	39.6 µM	23.1 µM	44.2 µM	21 µM	45.4 µM	20.2 µM	43 µM		
CC(C)=CCC\C(C)=C/C=C/C(C)=C\C=C\C(C)=C/C=C/C=C(C)\C=C\C=C(C)/C=C/C=C(/C)CCC=C(C)C		> 100 µM		> 100 µM		> 100 µM		> 100 µM		> 100 µM		> 100 µM		> 100 µM		> 100 µM		
O=C(Nc1ccc(-n2ccc3c(NC(=O)c4ccccc4)nccc32)cc1)c1ccc(Cl)c(C(F)(F)F)c1	6.1 µM	33.1 µM	1.83 µM	11 µM	0.687 µM	9.78 µM	0.674 µM	6.52 µM	0.96 µM	15.2 µM	1.61 µM	8.55 µM	0.335 µM	1.44 µM	6.73 µM	27.2 µM		
O=C1NC(=NCCc2cccc(F)c2)S/C1=C\c1ccc2ncccc2c1	3.89 µM	> 25 µM	1.43 µM	> 25 µM	2.08 µM	> 12.9 µM	0.312 µM	1.19 µM	10.8 µM	> 25 µM	> 25 µM	> 25 µM	0.819 µM	> 25 µM	9.61 µM	> 25 µM		
Cc1ccc(S(=O)(=O)OC[C@@H]2CO2)cc1		> 100 µM		> 100 µM		> 100 µM						> 100 µM		> 100 µM		> 100 µM	> 100 µM	
NS(=O)(=O)OC[C@@H]1C[C@@H](n2ccc3c(NC4CCc5ccccc54)ncnc32)C[C@@H]1O (stereo partly specified)	0.123 µM	2.27 µM	0.524 µM	> 51.2 µM	0.214 µM	14 µM	5.75 µM	> 100 µM	68.8 µM	> 100 µM	15.7 µM	> 100 µM	3.34 µM	> 77.6 µM	1.02 µM	> 90.7 µM		
CCN1/C(=C\c2cc[n+](CC)c3ccccc23)C=Cc2ccccc21	0.187 µM	2.78 µM	0.102 µM	0.32 µM	0.123 µM	0.82 µM	0.109 µM	1.16 µM	13.8 µM	46.2 µM	0.0559 µM	12.2 µM	0.23 µM	7.81 µM	0.135 µM	2.36 µM		
OCC1=CC(NC2CC(CO)C(O)C(O)C2O)C(O)C(O)C1O (stereo unspecified)				> 100 µM										> 100 µM		> 100 µM		> 100 µM
CCOC(=O)CCC1(C(=O)OCC)CCCCC1=O (stereo unspecified)		> 100 µM		> 100 µM		> 100 µM								> 100 µM		> 100 µM	> 100 µM	> 100 µM
